Values belong to the compound of their own block, whether it stands above or below them.
Key:
Plasmepsin II [1] = molecular target: T1, Plasmepsin II (Plasmodium falciparum, UniProt P46925); assay: Inhibition of Plasmodium falciparum plasmepsin 2 incubated for 10 mins followed by DABCYL-Glu-Arg-Nle-Phe-Leu-Ser-Phe-Pro-EDANS addition and measured after 30 mins by fluorescence method
Plasmepsin II [2] = molecular target: T1, Plasmepsin II; assay: Inhibition of Plasmodium falciparum plasmepsin 2 using fluorescently labeled peptide substrate by fluorescence method
Plasmepsin II [3] = molecular target: T1, Plasmepsin II; assay: Inhibition of Plasmodium falciparum plasmepsin 2 using Dabcyl-ERNIef:LSFP-EDANS as substrate incubated for 40 mins by FRET assay
Plasmepsin 4 [4] = molecular target: T2, Plasmepsin 4 (Plasmodium falciparum, UniProt Q17SB2); assay: Inhibition of Plasmodium falciparum plasmepsin 4 using fluorescently labeled peptide substrate by fluorescence method
T2 sequence (Q17SB2 whole entry): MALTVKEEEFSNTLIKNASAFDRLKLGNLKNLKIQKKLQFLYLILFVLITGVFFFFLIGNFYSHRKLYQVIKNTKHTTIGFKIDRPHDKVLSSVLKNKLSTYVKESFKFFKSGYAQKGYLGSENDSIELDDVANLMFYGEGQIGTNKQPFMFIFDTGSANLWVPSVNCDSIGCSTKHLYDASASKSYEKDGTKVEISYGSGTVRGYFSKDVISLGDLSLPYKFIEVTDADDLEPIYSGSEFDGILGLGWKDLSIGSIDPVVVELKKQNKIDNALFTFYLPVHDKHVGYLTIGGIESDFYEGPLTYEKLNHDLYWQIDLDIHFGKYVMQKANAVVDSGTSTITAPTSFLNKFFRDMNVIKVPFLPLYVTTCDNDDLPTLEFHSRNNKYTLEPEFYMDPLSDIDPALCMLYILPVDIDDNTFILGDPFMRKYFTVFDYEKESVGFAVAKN

Plasmepsin II [5] = molecular target: T1, Plasmepsin II; assay: Inhibition of Plasmodium falciparum plasmepsin 2 by FRET assay
Plasmepsin 4 [6] = molecular target: T2, Plasmepsin 4; assay: Inhibition of Plasmodium falciparum plasmepsin 4 by FRET assay
Cathepsin D = Cathepsin D (Homo sapiens, UniProt P07339); assay: Inhibition of human liver cathepsin D using DABCYL-Glu-Arg-Nle-Phe-Leu-Ser-Phe-Pro-EDANS as substrate by FRET assay
Sequence of Cathepsin D (P07339 65-162 limits assumed): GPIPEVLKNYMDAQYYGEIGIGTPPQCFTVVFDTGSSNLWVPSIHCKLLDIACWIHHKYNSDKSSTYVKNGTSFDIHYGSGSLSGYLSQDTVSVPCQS
Sequence of Cathepsin D (P07339 169-412 limits assumed): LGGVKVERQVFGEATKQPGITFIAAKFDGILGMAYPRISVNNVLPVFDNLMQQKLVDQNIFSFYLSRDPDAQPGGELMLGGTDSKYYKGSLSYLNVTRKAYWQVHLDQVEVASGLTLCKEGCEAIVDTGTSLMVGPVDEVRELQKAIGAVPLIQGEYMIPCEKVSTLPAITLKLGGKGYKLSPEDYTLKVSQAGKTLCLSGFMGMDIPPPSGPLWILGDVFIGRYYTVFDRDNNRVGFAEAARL

Plasmepsin II [7] = molecular target: T1, Plasmepsin II; assay: Inhibition of Plasmodium falciparum plasmepsin 2 using DABCYL-Glu-Arg-Nle-Phe-Leu-Ser-Phe-Pro-EDANS as substrate by FRET assay
Plasmepsin II [8] = molecular target: T1, Plasmepsin II; assay: Inhibition of Plasmodium falciparum plasmepsin 2 preincubated for 30 mins followed by DABCYL-Glu-Arg-Nle-Phe-Leu-Ser-Phe-Pro-EDANS addition measured every minute for 8 to 15 mins by FRET assay

T1 sequence (P46925 whole entry): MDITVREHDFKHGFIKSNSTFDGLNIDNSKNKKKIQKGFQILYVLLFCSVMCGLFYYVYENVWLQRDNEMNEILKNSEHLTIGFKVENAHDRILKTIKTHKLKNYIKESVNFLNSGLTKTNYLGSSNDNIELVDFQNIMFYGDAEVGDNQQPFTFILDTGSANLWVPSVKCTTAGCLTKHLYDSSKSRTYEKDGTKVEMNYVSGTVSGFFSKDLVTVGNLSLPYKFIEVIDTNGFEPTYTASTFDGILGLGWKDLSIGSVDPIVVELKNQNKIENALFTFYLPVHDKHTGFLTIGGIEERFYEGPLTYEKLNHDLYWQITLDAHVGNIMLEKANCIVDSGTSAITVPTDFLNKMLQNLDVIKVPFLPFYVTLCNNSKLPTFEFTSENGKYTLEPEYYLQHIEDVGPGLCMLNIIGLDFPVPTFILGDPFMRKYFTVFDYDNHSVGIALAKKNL

Ki (Plasmepsin II [1]): 0.05 to 0.68 µM
SMILES: O=C(Nc1cc(C(F)(F)F)ccc1Cl)Nc1cc(Cl)ccc1Oc1cc(Cl)c(Cl)cc1S(=O)(=O)O

IC50 (Plasmepsin II [2]): 5 µM
SMILES: CCCCCN(CCCCC)CC(O)c1cc2c(c3ccccc13)CCCC2 (centres undefined)

SMILES: CC(C)(C)c1ccc(C(=O)N(Cc2ccc(-c3ccccc3)cc2)C2CCN(Cc3ccccc3)CC2)cc1
IC50 (Plasmepsin II [3]): > 20 µM

Ki (Plasmepsin II [1]): 0.05 to 0.68 µM
SMILES: O=C(Nc1ccc(Cl)c(C(F)(F)F)c1)Nc1cc(Cl)c(Oc2ccc(Cl)cc2)cc1S(=O)(=O)O

SMILES: CCCCc1ccc(S(=O)(=O)C2C3CCC(N3)C2NCc2ccc3ccccc3c2)cc1 (centres undefined)
IC50 (Plasmepsin II [2]): 4.19 µM | IC50 (Plasmepsin 4 [4]): 1.48 µM

SMILES: CCCCCCCCCCc1ccc(S(=O)(=O)C2C3CCC(N3)C2NCc2ccc3ccccc3c2)cc1 (centres undefined)
IC50 (Plasmepsin II [2]): 0.35 µM | IC50 (Plasmepsin 4 [4]): 3.19 µM

IC50 (Plasmepsin II [3]): 0.1 to 10 µM
SMILES: Cc1ccc(C)c(OCCCc2ccc(C3=C(C(=O)N(Cc4ccccc4Cl)C4CC4)CNCC3)cc2)c1C

IC50 (Plasmepsin II [3]): < 0.1 µM
SMILES: O=C(C1=C(c2ccc(CCCOc3ccccc3Cl)cc2)CCNC1)N(Cc1ccccc1Cl)C1CC1

IC50 (Plasmepsin II [2]): 19 µM
SMILES: CC(C)CCCN(CCCC(C)C)CC(O)c1cc2c(c3ccccc13)CCCC2 (centres undefined)

SMILES: CC(=O)N1CC2CC(c3ccc(CCOc4cc(Cl)ccc4Cl)cc3)=C(C(=O)N(C)CCc3ccccc3)C(C1)N2 (centres undefined)
IC50 (Plasmepsin II [3]): 0.01 to 0.1 µM

SMILES: CC(=O)N1CC2CC(c3ccc(CCOc4cc(Cl)cc(Cl)c4)cc3)=C(C(=O)N(C)CCc3ccccc3)C(C1)N2 (centres undefined)
IC50 (Plasmepsin II [3]): 0.01 to 0.1 µM

SMILES: Clc1ccc2sc(SCCCc3cc4c(cc3OCCc3cccc5ccccc35)C3CCC4N3)nc2c1 (centres undefined)
IC50 (Plasmepsin II [5]): 2 µM | IC50 (Plasmepsin 4 [6]): 10 µM

IC50 (Plasmepsin II [3]): 0.1 to 10 µM
SMILES: O=C(C1=C(c2ccc(CCCOc3c(F)ccc(F)c3F)cc2)CCNC1)N(Cc1ccccc1Cl)C1CC1

SMILES: CCCCCCc1ccc(S(=O)(=O)[C@@H]2[C@H](NCc3cccc(Br)c3)[C@@H]3CC[C@H]2N3)cc1
IC50 (Plasmepsin II [2]): ≤ 0.045 µM | IC50 (Plasmepsin 4 [4]): 0.01 µM

SMILES: CC(=O)N1CC2CC(c3ccc(CCOc4ccc(C)cc4C(C)(C)C)cc3)=C(C(=O)N(C)CCc3ccccc3)C(C1)N2 (centres undefined)
IC50 (Plasmepsin II [3]): 0.1 to 10 µM

IC50 (Plasmepsin II [5]): 79 µM
SMILES: c1ccc(-c2nnc(SCCOc3cc4c(cc3OCCc3cccc5ccccc35)C3CCC4N3)o2)cc1 (centres undefined)

Ki (Plasmepsin II [1]): 0.05 to 0.68 µM
SMILES: O=C(Nc1ccc(Oc2ccc(Cl)cc2)c(Cl)c1)Nc1cc(Cl)c(Cl)cc1S(=O)(=O)O

IC50 (Plasmepsin II [3]): 0.1 to 10 µM
SMILES: CC(=O)N1CC2CC(c3ccc(CCOc4cccc(Cl)c4)cc3)=C(C(=O)N(C)CCc3ccccc3)C(C1)N2 (centres undefined)

SMILES: COc1ccccc1C(=O)NN
IC50 (Cathepsin D): 1 to 2.5 µM | IC50 (Plasmepsin II [7]): 1 to 2.5 µM

Ki (Plasmepsin II [1]): 0.05 to 0.68 µM
SMILES: O=C(Nc1cc(C(F)(F)F)cc(C(F)(F)F)c1)Nc1c(Oc2ccc(Cl)cc2)ccc(Cl)c1S(=O)(=O)O

SMILES: CCCCCCCCCCCC(=O)N(Cc1ccc(-c2ccccc2)cc1)C1CCN(Cc2ccccc2)CC1
IC50 (Plasmepsin II [3]): 1.8 µM

SMILES: CCCCCCc1ccc(S(=O)(=O)C2C3CCC(N3)C2NCc2ccc3ccccc3c2)cc1 (centres undefined)
IC50 (Plasmepsin II [2]): 0.13 µM | IC50 (Plasmepsin 4 [4]): 0.05 µM

SMILES: O=S(=O)(c1ccc(CCCCC2CCCCC2)cc1)C1C2CCC(N2)C1NCc1ccc2ccccc2c1 (centres undefined)
IC50 (Plasmepsin II [2]): 0.38 µM | IC50 (Plasmepsin 4 [4]): 0.76 µM

SMILES: CC(=O)N1CC2CC(c3ccc(CCOc4ccccc4C(C)(C)C)cc3)=C(C(=O)N(C)CCc3ccccc3)C(C1)N2 (centres undefined)
IC50 (Plasmepsin II [3]): 0.01 to 0.1 µM

SMILES: CC(=O)N1CC2CC(c3ccc(CCOc4ccccc4C(C)C)cc3)=C(C(=O)N(C)CCc3ccccc3)C(C1)N2 (centres undefined)
IC50 (Plasmepsin II [3]): 0.01 to 0.1 µM

Ki (Plasmepsin II [1]): 0.05 to 0.68 µM
SMILES: O=C(Nc1ccc(Cl)c(C(F)(F)F)c1)Nc1cc(Cl)ccc1Oc1ccc(Cl)cc1S(=O)(=O)O

SMILES: CCCCCCCCCCCc1ccc(S(=O)(=O)C2C3CCC(N3)C2NCc2ccc3ccccc3c2)cc1 (centres undefined)
IC50 (Plasmepsin II [2]): 1.95 µM | IC50 (Plasmepsin 4 [4]): 5.35 µM

IC50 (Plasmepsin II [8]): 0.6 µM
SMILES: CCCCCc1ccc(-n2nnc(CCN(CC)CC)c2-c2ccc(-c3ccc(OC)cc3)cc2)c(Cl)c1

IC50 (Plasmepsin II [5]): 7 µM
SMILES: CCCCCc1ccc(N(CC2CCC(O)C(F)(F)C2)C(=O)Cc2ccc3ccccc3c2)cc1 (centres undefined)

SMILES: CC(=O)N1CC2CC(c3ccc(CCOc4ccc(C(C)(C)C)cc4C)cc3)=C(C(=O)N(C)CCc3ccccc3)C(C1)N2 (centres undefined)
IC50 (Plasmepsin II [3]): 0.01 to 0.1 µM

SMILES: CCCCCc1ccc(C(=O)N(Cc2ccc(-c3ccccc3)cc2)C2CCN(Cc3ccccc3)CC2)cc1
IC50 (Plasmepsin II [3]): 0.07 to 0.09 µM
